Among the data in PubChem BioAssay AID330 (DTP/NCI, 2004) are T/C values, retold here.

This assay has as its system P388 leukemia ip, CD2F1 mice, survival T/C. The assay can be described thus: NCI In Vivo Anticancer Drug Screen. Data for tumor model P388 Leukemia (intraperitoneal) in CD2F1 (CDF1) mice. As to conditions: endpoint: median survival time, higher = longer survival. The gist of the method: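 Mice carrying the transplanted tumor received test compound or vehicle. Survival was recorded in each group, and the value is the treated-group measurement divided by that of the vehicle-treated control group.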

Setting [1] is: dose: 50.0 mg/kg/injection, schedule: Q01DX005 (ip), vehicle: saline with Tween-80.
Setting [2] is: dose: 100.0 mg/kg/injection, schedule: Q01DX005 (ip), vehicle: saline with Tween-80.
[3] abbreviates: dose: 200.0 mg/kg/injection, schedule: Q01DX005 (ip), vehicle: saline with Tween-80.
Where [4] appears, read: dose: 60.0 mg/kg/injection, schedule: Q01DX005 (ip), vehicle: saline with Tween-80.
Setting [5] is: dose: 120.0 mg/kg/injection, schedule: Q01DX005 (ip), vehicle: saline with Tween-80.
The mark [6] stands for this setting: dose: 240.0 mg/kg/injection, schedule: Q01DX005 (ip), vehicle: saline with Tween-80.
[7] abbreviates: dose: 100.0 mg/kg/injection, schedule: Q04DX003 (ip), vehicle: Klucel (hydroxypropylcellulose) (HPC).
Where [8] appears, read: dose: 200.0 mg/kg/injection, schedule: Q04DX003 (ip), vehicle: Klucel (hydroxypropylcellulose) (HPC).
The mark [9] stands for this setting: dose: 400.0 mg/kg/injection, schedule: Q04DX003 (ip), vehicle: Klucel (hydroxypropylcellulose) (HPC).
Setting [10] is: dose: 60.0 mg/kg/injection, schedule: Q01DX005 (ip), vehicle: saline.
[11] abbreviates: dose: 120.0 mg/kg/injection, schedule: Q01DX005 (ip), vehicle: saline.
Setting [12] is: dose: 240.0 mg/kg/injection, schedule: Q01DX005 (ip), vehicle: saline.
The mark [13] stands for this setting: dose: 100.0 mg/kg/injection, schedule: Q01DX009 (ip), vehicle: saline.
The mark [14] stands for this setting: dose: 200.0 mg/kg/injection, schedule: Q01DX009 (ip), vehicle: saline.
The mark [15] stands for this setting: dose: 50.0 mg/kg/injection, schedule: Q01DX009 (ip), vehicle: saline.

Inconclusive results and toxic doses are left out.

With `Cc1c2oc(=O)cc(-c3ccccc3)c2cc2c(=O)ccoc12`, the T/C is 97 % of control (dose: 12.5 mg/kg/injection, schedule: Q01DX005 (ip), vehicle: saline with Tween-80); 92 % of control (dose: 25.0 mg/kg/injection, schedule: Q01DX005 (ip), vehicle: saline with Tween-80); 97 % of control under setting [1]; 86 % of control under setting [2]; 86 % of control under setting [3].

`N#CC1(C#N)CC1c1ccccc1` (stereo unspecified): the T/C reads like this: under setting [4], 105 % of control; under setting [5], 96 % of control; under setting [6], 96 % of control.

Regarding `CCOc1c(N=Nc2ccc([N+](=O)[O-])cc2)c(C)nn1C(N)=S`, the T/C by setting is: (dose: 60.0 mg/kg/injection, schedule: Q01DX005 (ip), vehicle: Klucel (hydroxypropylcellulose) (HPC)) 93 % of control; (dose: 120.0 mg/kg/injection, schedule: Q01DX005 (ip), vehicle: Klucel (hydroxypropylcellulose) (HPC)) 95 % of control; (dose: 240.0 mg/kg/injection, schedule: Q01DX005 (ip), vehicle: Klucel (hydroxypropylcellulose) (HPC)) 98 % of control.

As for `O=C(O)CCCC12CCC(CCCC(=O)O)(CC1)CC2`, the T/C under setting [7] was 99 % of control, the T/C under setting [8] is 97 % of control and the T/C under setting [9] was 104 % of control.

With `CCC1OC(=O)C2C(c3ccccc3)=NOC2[C@H]1C` (stereo partly specified), the T/C reads like this: under setting [4], 102 % of control; under setting [5], 101 % of control; under setting [6], 94 % of control.

Regarding `COc1ccc(-c2cc(-c3cc(-c4ccc(OC)cc4)nc(N)n3)nc(N)n2)cc1`, the T/C is 105 % of control under setting [10], 102 % of control under setting [11] and 105 % of control under setting [12].

Consider `c1ccc(P2(c3ccccc3)(c3ccccc3)C3C4C5C6C4C2C6C53)cc1` (stereo unspecified), for which the T/C by setting is: (dose: 50.0 mg/kg/injection, schedule: Q01DX001 (ip), vehicle: saline with Tween-80) 109 % of control; (dose: 100.0 mg/kg/injection, schedule: Q01DX001 (ip), vehicle: saline with Tween-80) 104 % of control; (dose: 200.0 mg/kg/injection, schedule: Q01DX001 (ip), vehicle: saline with Tween-80) 113 % of control.

As for `CC(C)CN1CC(=O)N2CCCC(C)N2C(=O)C1` (stereo unspecified), the T/C runs as follows: under setting [1], 100 % of control; under setting [2], 99 % of control; under setting [3], 102 % of control.

Take `C=C(Cl)CSC(=S)N(CC)CC`: the T/C is, setting by setting: (dose: 37.5 mg/kg/injection, schedule: Q01DX009 (ip), vehicle: saline sonified) 100 % of control; (dose: 75.0 mg/kg/injection, schedule: Q01DX009 (ip), vehicle: saline sonified) 104 % of control; (dose: 150.0 mg/kg/injection, schedule: Q01DX009 (ip), vehicle: saline sonified) 109 % of control.

For the compound `O=C1c2ccccc2-c2c1c1ccccc1n2S(=O)(=O)c1ccccc1`, the T/C is 103 % of control (dose: 100.0 mg/kg/injection, schedule: Q01DX001 (ip), vehicle: Klucel (hydroxypropylcellulose) (HPC)); 103 % of control (dose: 200.0 mg/kg/injection, schedule: Q01DX001 (ip), vehicle: Klucel (hydroxypropylcellulose) (HPC)); 101 % of control (dose: 400.0 mg/kg/injection, schedule: Q01DX001 (ip), vehicle: Klucel (hydroxypropylcellulose) (HPC)).

In the case of `CC1=NNC(C)(C)C1`, the T/C reads like this: under setting [13], 105 % of control; under setting [14], 105 % of control; (dose: 400.0 mg/kg/injection, schedule: Q01DX009 (ip), vehicle: saline) 110 % of control.

Consider `Cc1c2cnccc2c(CO)c2[nH]c3ccccc3c12`, for which the T/C by setting is: (dose: 12.5 mg/kg/injection, schedule: Q04DX002 (ip), vehicle: saline with Tween-80) 119 % of control; (dose: 100.0 mg/kg/injection, schedule: Q04DX002 (ip), vehicle: saline with Tween-80) 163 % of control.

For `O=C1C(Br)=C(O)C(c2ccccc2)N1c1ccccc1` (stereo unspecified), the T/C is, setting by setting: under setting [4], 110 % of control; under setting [5], 94 % of control; under setting [6], 113 % of control.

For `COC(=O)c1nnn(-c2ccc(S(N)(=O)=O)cc2)c1N`, the T/C runs as follows: under setting [10], 98 % of control; under setting [11], 104 % of control; under setting [12], 98 % of control.

On to `COC(=O)C1CC2C(=O)N(C)C(Br)C(Br)C12` (stereo unspecified), for which the T/C was 101 % of control (dose: 100.0 mg/kg/injection, schedule: Q04DX002 (ip), vehicle: saline) and 95 % of control (dose: 200.0 mg/kg/injection, schedule: Q04DX002 (ip), vehicle: saline).

Take `CN(C)c1ccc(-c2nc3ccccc3s2)c(Cl)c1`: the T/C is 102 % of control (dose: 50.0 mg/kg/injection, schedule: Q01DX009 (ip), vehicle: saline with Tween-80); 103 % of control (dose: 100.0 mg/kg/injection, schedule: Q01DX009 (ip), vehicle: saline with Tween-80); 109 % of control (dose: 200.0 mg/kg/injection, schedule: Q01DX009 (ip), vehicle: saline with Tween-80).

For `O=C1CC(c2ccccc2)NCCC2CN(CCCN1)C(=O)c1ccccc12` (stereo unspecified), the T/C (dose: 16.25 mg/kg/injection, schedule: Q01DX005 (ip), vehicle: Klucel (hydroxypropylcellulose) (HPC)) is 100 % of control; the T/C (dose: 32.5 mg/kg/injection, schedule: Q01DX005 (ip), vehicle: Klucel (hydroxypropylcellulose) (HPC)) was 100 % of control; the T/C (dose: 65.0 mg/kg/injection, schedule: Q01DX005 (ip), vehicle: Klucel (hydroxypropylcellulose) (HPC)) is 100 % of control; the T/C (dose: 130.0 mg/kg/injection, schedule: Q01DX005 (ip), vehicle: Klucel (hydroxypropylcellulose) (HPC)) was 100 % of control.

On to `O=C(O)c1cc2oc(-c3ccccc3)cc2[nH]1`, for which the T/C reads like this: under setting [4], 94 % of control; under setting [5], 92 % of control.

In the case of `O=C(O)c1cc2ccc(Br)cc2[se]1`, the T/C was 110 % of control under setting [15], 99 % of control under setting [13] and 94 % of control under setting [14].

Regarding `COC(=O)c1cc(Cl)ccc1OCC(O)CNc1ccc(Cl)cc1C(=O)c1ccccc1` (stereo unspecified), the T/C reads like this: under setting [4], 92 % of control; under setting [5], 100 % of control; under setting [6], 90 % of control.

As to `CSc1n[nH]c(C2CCC(=O)N2Cc2ccccc2)n1` (stereo unspecified), the T/C is, setting by setting: under setting [1], 103 % of control; under setting [2], 101 % of control; under setting [3], 100 % of control.

`CSc1nccn2c(C)nnc12`: the T/C runs as follows: (dose: 100.0 mg/kg/injection, schedule: Q01DX001 (ip), vehicle: suspension in saline) 92 % of control; (dose: 200.0 mg/kg/injection, schedule: Q01DX001 (ip), vehicle: suspension in saline) 100 % of control.

For the compound `O=[N+]([O-])c1ccc(Sc2ccc(Cl)cc2)c2nonc12`, the T/C is, setting by setting: (dose: 6.25 mg/kg/injection, schedule: Q01DX009 (ip), vehicle: saline with Tween-80) 105 % of control; (dose: 12.5 mg/kg/injection, schedule: Q01DX009 (ip), vehicle: saline with Tween-80) 101 % of control; (dose: 25.0 mg/kg/injection, schedule: Q01DX009 (ip), vehicle: saline with Tween-80) 93 % of control.

For the compound `COc1ccc(CN2COc3c(cc(Cl)c4cccnc34)C2)cc1`, the T/C under setting [7] is 96 % of control, the T/C under setting [8] was 104 % of control and the T/C under setting [9] is 95 % of control.

Take `Cc1nc2nc(=S)[nH]c(N)c2nc1C`: the T/C is 103 % of control (dose: 12.5 mg/kg/injection, schedule: Q01DX009 (ip), vehicle: saline); 95 % of control (dose: 25.0 mg/kg/injection, schedule: Q01DX009 (ip), vehicle: saline); 95 % of control under setting [15]; 100 % of control under setting [13].

In the case of `C=CCn1c(=S)[nH]c2ccccc2c1=O`, the T/C runs as follows: (dose: 100.0 mg/kg/injection, schedule: Q04DX003 (ip), vehicle: saline with Tween-80) 90 % of control; (dose: 200.0 mg/kg/injection, schedule: Q04DX003 (ip), vehicle: saline with Tween-80) 90 % of control; (dose: 400.0 mg/kg/injection, schedule: Q04DX003 (ip), vehicle: saline with Tween-80) 90 % of control.

`COc1cc2c(cc1Br)C(=O)C(Br)(Br)CCC2Br` (stereo unspecified): the T/C (dose: 50.0 mg/kg/injection, schedule: Q01DX009 (ip), vehicle: Klucel (hydroxypropylcellulose) (HPC)) was 118 % of control; the T/C (dose: 100.0 mg/kg/injection, schedule: Q01DX009 (ip), vehicle: Klucel (hydroxypropylcellulose) (HPC)) is 118 % of control; the T/C (dose: 200.0 mg/kg/injection, schedule: Q01DX009 (ip), vehicle: Klucel (hydroxypropylcellulose) (HPC)) is 114 % of control.
